Laboratory results published in paper PMC8665362, “Identification of small-molecule allosteric modulators that act as enhancers/disrupters of rhodopsin oligomerization” (The Journal of Biological Chemistry, 2021).
Marks after values point to notes of the source that are not given here.

Experiments:
[1] = target: T1, rhodopsin (isorhodopsin) dimerization (Homo sapiens, UniProt P08100); experiment: rhodopsin β-gal fragment complementation assay in U2OS opsin-EA/opsin-PK cells; assay type: cell-based; set-up: expressed in transfected cells; settings: for EC50: U2OS opsin-EA/PK cells regenerated with 9-cis-retinal, triplicates, read from Fig. 3A,D
T1 sequence (P08100 whole entry, the tested form may be a part): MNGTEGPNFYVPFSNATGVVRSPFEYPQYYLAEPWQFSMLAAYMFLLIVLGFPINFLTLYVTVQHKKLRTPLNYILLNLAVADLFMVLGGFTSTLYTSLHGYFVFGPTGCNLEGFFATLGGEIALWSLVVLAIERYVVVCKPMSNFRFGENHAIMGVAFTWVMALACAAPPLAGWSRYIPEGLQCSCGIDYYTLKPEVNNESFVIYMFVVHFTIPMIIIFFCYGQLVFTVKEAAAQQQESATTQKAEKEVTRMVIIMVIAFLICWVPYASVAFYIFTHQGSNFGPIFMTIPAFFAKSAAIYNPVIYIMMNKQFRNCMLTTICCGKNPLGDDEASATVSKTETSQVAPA
Excerpt: (§1) To identify small molecules that target rhodopsin dimerization, a cell-based high-throughput screening (HTS) assay was used to screen a diverse library of 50,000 compounds from Life Chemicals. The human osteosarcoma (U2OS) stable cell line was used, which expresses opsin fused with complimentary subunits of β-galactosidase (β-gal), namely, the enzyme acceptor large β-gal subunit (EA) and the enzyme donor, small subunit of β-gal (PK). Upon rhodopsin self-association in vitro, a competent β-gal was formed and chemiluminescent signal was generated in the presence of β-gal substrate (Fig. 1A). For further validation, the β-gal activity assay was used to counter-screen and rule out false positives, affecting the activity of β-gal without affecting rhodopsin (Fig. 1B) ([34]). In an orthogonal assay, rhodopsin dimerization was assessed using a bioluminescence resonance energy transfer (BRET) assay with human embryonic kidney 293 cells expressing opsin fused with Renilla luciferase and opsin fused with Venus (Fig. 1C) ([35], [36]). To form functional visual pigment, opsin-fused proteins were regenerated with 9-cis-retinal to form so-called isorhodopsin ([37]). We chose 9-cis-retinal over photoreceptor-endogenous 11-cis-retinal because of its availability and the prohibitive cost for HTS assays with the native chromophore. Rhodopsin and isorhodopsin have similar biochemical and spectral properties (see ([38])).
All 50,000 compounds were screened, using the β-gal complementation assay at a final concentration of 60 μM with a Z′ factor of 0.75 ± 0.01 and a signal-to-background (S/B) ratio of 123 ± 14.4 (Fig. 2A) ([39]). The activity scores were calculated according to the following equation: (RLU(compound)−RLU(positivecontrol))/(RLU(negativecontrol)−RLU(positivecontrol))×100.
The positive control comprised U2OS cells transfected with both opsin-EA and opsin-PK, mimicking dimer formation (with a 0% score value), and the negative control comprised U2OS cells transfected with opsin-EA only, mimicking disrupted dimer formation (with a 100% score value).
In this study, cultured U2OS opsin-EA and opsin-PK cells were diluted to 2 × 10^5 cells/ml in the culture medium containing 10% fetal bovine serum (Thermo Fisher Scientific) and 1% penicillin-streptomycin 10,000 U/ml (Thermo Fisher Scientific). Cell diluent of 20 μl/well was dispensed into a white ViewPlate-384 (PerkinElmer) using the EL406 plate dispenser (BioTek). As a control, we used U2OS opsin-EA–only expressing cells as a positive control for dimerization disruption generating a minimal luminescence signal, as previously described ([41]). The plates were cultured overnight at 37 °C in 5% CO2, and the next day, under a dim red light, cells were treated with 5 μl/well of 9-cis-retinal (Sigma-Aldrich) at 7.5 μM final concentration. Plates were covered with aluminum foil and cultured overnight at 37 °C in 5% CO2. Next, cells were treated with each of the 50,000 library compounds (Life Chemicals Inc) at a final concentration of 57.6 μM, using a JANUS automated workstation (PerkinElmer), followed by incubation overnight at 37 °C, covered with aluminum foil. The next day, cells were treated with Galacton-Star chemiluminescent substrate (23 μl/well; Thermo Fisher Scientific). The plates were covered with foil and incubated at 20 °C for 2 h, followed by luminescence reading with the EnSpire multimode plate reader (PerkinElmer). Measurements were evaluated with the lowest value being defined as −50% (dimer enhancers) and the highest value as 100% (dimer disrupters) in the compound dataset. All experiments were done under red-light conditions. Identified compounds were retested in triplicates ranging from 180 μM down to 2.4 nM concentrations.

[2] = target: T1, rhodopsin (isorhodopsin) dimerization; experiment: rhodopsin dimerization BRET assay in HEK293 opsin-Rluc/opsin-Venus cells; assay type: cell-based; set-up: expressed in transfected cells; host or cells: HEK293 (human embryonic kidney 293) opsin-Rluc / opsin-Venus cell lines; settings: for EC50: HEK293 opsin-Rluc/opsin-Venus cells regenerated with 9-cis-retinal, triplicates, read from Fig. 3B,E
Excerpt: as §1
Identified hits from the β-gal complementation assay were subjected to the previously developed BRET assay, using human embryonic kidney 293 opsin–Renilla luciferase and opsin-Venus cell lines ([37]). Cultured cells were diluted to 2 × 10^5 cells/ml in the medium containing 10% fetal bovine serum (Thermo Fisher Scientific) and 1% penicillin-streptomycin (10,000 U/ml; Thermo Fisher Scientific), and 20 μl/well of the cell diluent was dispensed into a white ViewPlate-384 (PerkinElmer). Cells were cultured overnight at 37 °C in 5% CO2, and under a dim red light, cells were treated with 9-cis-retinal at 7.5 μM final concentration. The next day, cells were treated with the identified hit compounds from the β-gal complementation assay at 180 μM down to 2.4 nM concentrations, and 1 μM final concentration of TM5 peptide ([…]-NH2; EZBiolab) serving as the control. On the following day, the culture medium was aspirated and replaced with 90 μl/well of PBS containing pivaloyloxymethyl acetoxycoelenterazine h (Dalton Research Molecules) at 600 μM concentration followed by incubation at 20 °C for 40 min ([35]). Dual luminescence readings at 480 and 530 nm were performed using a SpectraMax L plate reader with the BRET1 filter set (Molecular Devices).

[3] = target: T2, bovine rhodopsin (Bos taurus, UniProt P02699); experiment: rhodopsin Meta II decay assay (Trp265 intrinsic fluorescence); settings: 100 μM compound; for Meta II decay rate (slope of intrinsic fluorescence over 150 s) relative to DMSO control: bleached rhodopsin, p < 0.0001
T2 construct: The washed ROS with isotonic and hypotonic buffers was used as described above; from tissue; host or cells: bovine rod outer segments (ROS)
T2 sequence (P02699 whole entry): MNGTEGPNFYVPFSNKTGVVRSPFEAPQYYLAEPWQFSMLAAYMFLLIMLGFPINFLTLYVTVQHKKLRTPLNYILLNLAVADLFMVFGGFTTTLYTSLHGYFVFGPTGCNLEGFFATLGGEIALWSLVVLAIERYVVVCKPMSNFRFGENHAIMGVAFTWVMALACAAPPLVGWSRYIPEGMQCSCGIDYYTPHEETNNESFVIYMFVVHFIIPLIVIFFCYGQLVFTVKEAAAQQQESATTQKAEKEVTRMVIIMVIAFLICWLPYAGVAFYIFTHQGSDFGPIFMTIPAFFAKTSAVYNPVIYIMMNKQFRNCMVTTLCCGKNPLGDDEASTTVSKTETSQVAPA
Experimental: However, oligomerization of isorhodopsin could affect the chromophore release from opsin. The chromophore release can be measured sensitively by the light-induced increase in intrinsic fluorescence of the Trp^265 residue that occurs upon release of the chromophore after illumination ([43]).
The washed ROS with isotonic and hypotonic buffers was used as described above. The solubilized rhodopsin at 1.05 mg/ml in 20 mM 1,3-bis(tris(hydroxymethyl)methylamino) propane, pH 6.9, 100 mM NaCl, and 1 mM LMNG buffer was incubated for 5 min at 20 °C with 0.7 μl of 100 mM stock solutions of the nine identified hit compounds (100 μM final concentration) in DMSO and centrifuged at 1000g for an additional 5 min. Next, photobleaching was carried out with a 150-W fiber light delivered through a 480 to 520 nm band pass filter (Chroma Technology) for 10 s. Samples were subjected to fluorescence measurements acquired through 150 s in triplicate. The results were analyzed with an L55 luminescence spectrophotometer (PerkinElmer) operating at excitation and emission wavelengths of 300 nm and 335 nm, respectively.

[4] = system: rod photoreceptors of isolated mouse retinas; experiment: ex vivo ERG of isolated mouse retinas (rod light responses); assay type: cell-based, mouse (C57BL/6J); settings: 250 μM compound
Excerpt: We determined the impact of compound #7 (representative disrupter of rhodopsin dimerization) and compound #1 (representative enhancer) on the sensitivity and kinetics of rod light responses, using ex vivo electroretinogram (ERG) analysis of isolated mouse retinas (Experimental procedures). This technique allows robust recordings from intact retinas and is well suited for quantitative investigation of mouse phototransduction ([48], [49], [50], [51], [52], [53]).
Ex vivo ERG recordings were conducted with isolated retinas of C57Bl/6J mice, as described ([41], [62], [63]). Mice were dark-adapted overnight and euthanized by CO2 asphyxiation, and whole retinas were dissected under dim red light. Before recordings, retinas were incubated for 5 h in Ames’ medium (Sigma-Aldrich) inside a light-tight box that was supplied with humidified 95% O2/5% CO2. For control retinas, 0.1% DMSO was added to the incubation medium, and for others, the incubation medium contained either 250 μM F2502-0030 (compound #1) or F5897-0190 (compound #7). These compounds were first dissolved in DMSO at 250 mM concentration, and 0.1% of this stock solution was added to the incubation medium (Ames’ medium). Stock solution was stored at −20 °C and used within a week. After incubation, retinas were placed on the ex vivo ERG specimen holder and perfused with Ames’ medium (saturated with 95% O2/5% CO2) at 1.5 ml/min at 35 °C. Ames’ medium was supplemented with 100 μM BaCl2 and 40 μM DL-AP4 (Tocris Bioscience) to isolate the photoreceptor component of the ERG signal. Responses were recorded to 5 ms flashes of light (630 nm) ranging from 276 to 308,534 photons μm^−2, corresponding to 1 to 1100 photons μm^−2 at 500 nm ([64]). Sensitivity of rod photoreceptors was determined in three ways: (1) sF = peak amplitude of dim flash response divided by flash energy (1 photon μm^−2); (2) SF = sF/Rmax, where Rmax is the maximal response amplitude measured at the plateau from a saturated rod response; (3) I1/2: flash energy required to elicit 50% of the Rmax determined by fitting a Naka-Rushton function to flash energy-amplitude data.

[5] = system: individual rod photoreceptors; experiment: single-cell suction electrode recording from rod outer segments; assay type: cell-based, mouse (C57BL/6J); settings: long incubation time during sample preparation for single-cell recording
Experimental: Because it is possible that reduction of Rmax by compound #1 is due to some effect(s) on the rod photoreceptor inner segment currents that are not directly related to phototransduction ([51], [52]), we conducted also single-cell suction electrode recordings from the ROS from samples that were incubated either in the control medium or in the medium containing enhancer compound #1. The results from single cell recordings were similar to those obtained using ex vivo ERG: Rmax and fractional sensitivity were decreased from 12 (±0.4) to 9 (±0.3) pA and from 3.0 (±0.5) to 1.8 (±0.1)% per photon μm^−2, respectively, by rhodopsin dimerization–enhancing hit #1 (Fig. 6, A–C). Like the ex vivo ERG recordings, light response kinetics was not affected by compound #1 in the single-cell recordings (Fig. 6D).
Suction electrode recordings from individual rod photoreceptors of dark-adapted C57BL/6J mice were conducted as described previously ([65]). Before recordings, isolated retinas were incubated in the control medium (Ames’ medium + 0.1% DMSO) or in the hit compound–containing medium (Ames’ medium +250 μM F2502-0030 (#1)) as described above for ex vivo ERG experiments. After incubation, one half of the retina was chopped with a razor blade and transferred into a chamber where it was perfused at 1 ml/min with Ames’ medium saturated with 95% O2/5% CO2 at 35 °C. Recordings were made from a single ROS, using borosilicate glass electrodes with ∼1.5-μm opening (resistance ∼2 MΩ at 35 °C). The pipette solution was Hepes buffered Ames’ medium composed of 0.88 g Ames’ powder (A1420, Sigma-Aldrich), 0.357 g Hepes (Sigma-Aldrich), and 58.44 mg NaCl in […] distilled and vacuum-filtered water. The pH was adjusted to 7.4 with NaOH. Light responses were recorded to flashes of light ranging from 8 to 700 photons μm^−2 at 500 nm. For analysis, data were low-pass filtered using an 8-pole Bessel filter with cut-off frequency at 30 Hz.

Structure (SMILES) | EC50 [1] [µM] | EC50 [2] [µM] | Meta II decay rate (slope of intrinsic fluorescence over 150 s) relative to DMSO control [3] | also measured
COc1ccc(S(=O)(=O)N(C(C)=O)c2cc3sc(=O)oc3c3ccccc23)cc1 [#5] | 31.3 | 5.53 |  | 
O=C(NCCc1ccsc1)c1cc(-c2ccco2)on1 [#2] | 1.2 | 4 |  | 
O=C(CCCCn1c(=O)c2ccccc2n(Cc2ccccc2)c1=O)NCc1cccs1 [#4] |  |  |  | effect on dimerization in the β-gal complementation assay [1]: disrupted dimerization; effect on dimerization in the BRET assay [2]: enhanced dimerization
O=C(Nc1ccc(CC(=O)N2CCC(O)CC2)cc1)c1cc(-c2ccco2)on1 [#3] | 23.9 | 7.87 | statistically significant signal reduction | light-induced increase in Trp265 intrinsic fluorescence vs DMSO-treated isorhodopsin [3]: significantly quenched
Cc1onc(-c2ccccc2Cl)c1C(=O)Nc1cccc2ccc(-n3ccnc3)nc12 [#7] |  |  | statistically significant signal reduction | effect on kinetics of rod light responses [4]: marked deceleration of light responses; Rmax ([4]; 5 h incubation, N = 4 retinas): 550 ± 40 μV; half-saturating I1/2 from best-fitting Michaelis–Menten equation to mean normalized amplitudes ([4]; Fig. 5F): 34 photons μm^−2; SF (fractional sensitivity, sF/rmax) ([4]; N = 4): 4.0 ± 0.3 ^a %/photons∙μm^−2; sF (absolute sensitivity) ([4]; N = 4): 18 ± 6 ^a μV/photons∙μm^−2; I1/2 ([4]; from individual retinas, N = 4): 35 ± 3 ^a photons∙μm^−2; tp ([4]; time-to-peak of dim flash (1 photon μm^−2), N = 4): 910 ± 100 ^a ms; damage to photoreceptor cells [5]: caused damage to the photoreceptor cells

Further lines, with some results ahead:

EC50 [1] [µM] | EC50 [2] [µM] | Structure (SMILES) | Meta II decay rate (slope of intrinsic fluorescence over 150 s) relative to DMSO control [3] | also measured
16.5 | 20.5 | NC(=O)c1oc2ccccc2c1NC(=O)c1ccc(Oc2ccccc2)cc1 [#8] | statistically significant signal reduction | 
10.5 | 17.7 | Cc1c(C(=O)N(Cc2cccnc2)c2nc3c(F)cccc3s2)cnn1-c1ccccc1 [#9] | statistically significant signal reduction | 
30 | 13.6 | CCOc1ccccc1-n1nnc(-c2nn3c(Cc4ccccc4)nnc3s2)c1C [#6] | statistically significant signal reduction | 
